As usually defined, the Dmax is the greatest extent of degradation seen. High values mean deep degradation, low ones shallow degradation.

In the test the target is KRas (Homo sapiens, UniProt P01116, G12C). As to the kind of experiment: KRas degradation in NCI-H2030 cells by Western blot, normalized to GAPDH (data of Table 14). More on the design: host or cells: NCI-H2030. To be noted: for Dmax: NCI-H2030. The format is cell-based. The method, boiled down:
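KRas/GAPDH band ratio vs DMSO lane gives % degradation; values under 25% were estimated visually, the rest quantitated. Cells are G12C homozygous, serum-free for 24 h, then dosed at 0.3/1/3 μM (0.1% DMSO). VHL-based compounds 24 h, others 72 h.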

Structures are written as SMILES. Bounds are passed on as bounds.

With `C=CC(=O)N1CCN(c2nc(NCCC(=O)N(C)CCOCCOCCOCCOCC(=O)N[C@H](C(=O)N3C[C@@H](O)C[C@H]3C(=O)N[C@@H](C)c3ccc(-c4scnc4C)cc3)C(C)(C)C)nc3c(F)c(-c4cc(O)cc5ccccc45)c(Cl)cc23)CC1` [compound 199, (2S,4S)-1-((2S)-21-((4-(4-acryloylpiperazin-1-yl)-6-chloro-8-fluoro-7-(3-hydroxynaphthalen-1-yl)quinazolin-2-yl)amino)-2-(tert-butyl)-18-methyl-4,19-dioxo-6,9,12,15-tetraoxa-3,18-diazahenicosanoyl)-4-hydroxy-N-((S)-1-(4-(4-methylthiazol-5-yl)phenyl)ethyl)pyrrolidine-2-carboxamide], the Dmax was at most 35%. Moreover, the “Percent Degradation at Indicated Concentration (μM)” value (H2030, 0.3 μM) is reported as “C (Percent Degradation: C ≤ 35)”. Where the note is “H2030, 1 μM”, the “Percent Degradation at Indicated Concentration (μM)” value is “C (Percent Degradation: C ≤ 35)”. For the same molecule, the “Percent Degradation at Indicated Concentration (μM)” value (H2030, 3 μM) is on record as “C (Percent Degradation: C ≤ 35)”.

As for `C=CC(=O)N1CCN(c2nc(NCCC(=O)N(C)CCOCCOc3cc(-c4scnc4C)ccc3CNC(=O)[C@@H]3C[C@@H](O)CN3C(=O)[C@@H](c3cc(C)no3)C(C)C)nc3c(F)c(-c4c(O)cccc4F)c(Cl)cc23)CC1` (atropisomer, axis not shown) [compound 128, (25,4R)-N-(2-(2-(2-(3-(((S)-4-(4-acryloylpiperazin-1-yl)-6-chloro-8-fluoro-7-(2-fluoro-6-hydroxyphenyl)quinazolin-2-yl)amino)-N-methylpropanamido)ethoxy)ethoxy)-4-(4-methylthiazol-5-yl)benzyl)-4-hydroxy-1-((R)-3-methyl-2-(3-methylisoxazol-5-yl)butanoyl)pyrrolidine-2-carboxamide], the Dmax is at most 35%. In addition, the “Percent Degradation at Indicated Concentration (μM)” value (H2030, 0.3 μM) is reported as “C (Percent Degradation: C ≤ 35)”. For the same molecule, the “Percent Degradation at Indicated Concentration (μM)” value (H2030, 1 μM) is reported as “C (Percent Degradation: C ≤ 35)”. Besides, the “Percent Degradation at Indicated Concentration (μM)” value (H2030, 3 μM) was “C (Percent Degradation: C ≤ 35)”.

For `CCC(=O)N1CCN(c2nc(NCCC(=O)N(C)CCOCCOCCOc3cc(-c4scnc4C)ccc3CNC(=O)[C@@H]3C[C@@H](O)CN3C(=O)[C@H](c3cc(C)no3)C(C)C)nc3c(F)c(-c4cc(O)cc5ccccc45)c(Cl)cc23)CC1` [compound 333, (2S,4R)-N-(2-(2-(2-(2-(3-((6-chloro-8-fluoro-7-(3-hydroxynaphthalen-1-yl)-4-(4-propionylpiperazin-1-yl)quinazolin-2-yl)amino)-N-methylpropanamido)ethoxy)ethoxy)ethoxy)-4-(4-methylthiazol-5-yl)benzyl)-4-hydroxy-1-((S)-3-methyl-2-(3-methylisoxazol-5-yl)butanoyl)pyrrolidine-2-carboxamide], for the setting “H2030 cells, 0.3 μM”, the “Percent Degradation at Indicated Concentration (μM): 0.3” value (“Percent Degradation … 0.3” for short) is “C (C ≤ 35)”. Further, under “H2030 cells, 1 μM”, the “Percent Degradation at Indicated Concentration (μM): 1” value (“Percent Degradation … 1” below) is “C (C ≤ 35)”. Also, the “Percent Degradation at Indicated Concentration (μM): 3” value (“Percent Degradation … (μM): 3” for short) (H2030 cells, 3 μM) is given as “C (C ≤ 35)”. Besides, the Dmax (H2030 cells) was at most 35%.

The molecule `CN(CCOCCOCCOCCNc1cccc2c1C(=O)N(C1CCC(=O)NC1=O)C2=O)C(=O)CCNc1nc(N2CCN(C(N)=O)CC2)c2cc(Cl)c(-c3c(O)cccc3F)c(F)c2n1` [compound 146, 4-((7S)-6-chloro-2-((1-((2-(2,6-dioxopiperidin-3-yl)-1,3-dioxoisoindolin-4-yl)amino)-12-methyl-13-oxo-3,6,9-trioxa-12-azapentadecan-15-yl)amino)-8-fluoro-7-(2-fluoro-6-hydroxyphenyl)quinazolin-4-yl)piperazine-1-carboxamide] came in with a Dmax of at most 35%. Further, the “Percent Degradation at Indicated Concentration (μM)” value (H2030, 0.3 μM) was “C (Percent Degradation: C ≤ 35)”. Besides, for the setting “H2030, 1 μM”, the “Percent Degradation at Indicated Concentration (μM)” value is recorded as “C (Percent Degradation: C ≤ 35)”. The “Percent Degradation at Indicated Concentration (μM)” value (H2030, 3 μM) is listed as “C (Percent Degradation: C ≤ 35)”.

In the case of `CCC(=O)N1CCN(c2nc(NCCC(=O)N(C)CCOCCOc3cc(-c4scnc4C)ccc3CNC(=O)[C@@H]3C[C@@H](O)CN3C(=O)[C@@H](c3cc(C)no3)C(C)C)nc3c(F)c(-c4cc(O)cc5ccccc45)c(Cl)cc23)CC1` [compound 330, (2S,4R)-N-(2-(2-(2-(3-((6-chloro-8-fluoro-7-(3-hydroxynaphthalen-1-yl)-4-(4-propionylpiperazin-1-yl)quinazolin-2-yl)amino)-N-methylpropanamido)ethoxy)ethoxy)-4-(4-methylthiazol-5-yl)benzyl)-4-hydroxy-1-((R)-3-methyl-2-(3-methylisoxazol-5-yl)butanoyl)pyrrolidine-2-carboxamide], the “Percent Degradation … 0.3” value (H2030 cells, 0.3 μM) is listed as “C (C ≤ 35)”. Also, the “Percent Degradation … 1” value (H2030 cells, 1 μM) is reported as “C (C ≤ 35)”. For the same molecule, for the setting “H2030 cells, 3 μM”, the “Percent Degradation … (μM): 3” value was “C (C ≤ 35)”. The Dmax (H2030 cells) is at most 35%.

`CN(CCOCCNc1cccc2c1C(=O)N(C1CCC(=O)NC1=O)C2=O)C(=O)CCNc1nc(N2CCN(C(N)=O)CC2)c2cc(Cl)c(-c3cc(O)cc4ccccc34)c(F)c2n1` (stereo not shown) [compound 32, 4-(6-chloro-2-((3-((2-(2-((2-(2,6-dioxopiperidin-3-yl)-1,3-dioxoisoindolin-4-yl)amino)ethoxy)ethyl)(methyl)amino)-3-oxopropyl)amino)-8-fluoro-7-(3-hydroxynaphthalen-1-yl)quinazolin-4-yl)piperazine-1-carboxamide]: the Dmax is at most 35%. Also, under “H2030, 0.3 μM”, the “Percent Degradation at Indicated Concentration (μM)” value was “C (Percent Degradation: C ≤ 35)”. Besides, where the note is “H2030, 1 μM”, the “Percent Degradation at Indicated Concentration (μM)” value is on record as “C (Percent Degradation: C ≤ 35)”. Also, the “Percent Degradation at Indicated Concentration (μM)” value (H2030, 3 μM) is recorded as “C (Percent Degradation: C ≤ 35)”.

`CN(CCOCCOCCOCCOc1ccc2c(c1)CN(C1CCC(=O)NC1=O)C2=O)C(=O)CCNc1nc(N2CCN(C(N)=O)CC2)c2cc(Cl)c(-c3cc(O)cc4ccccc34)c(F)c2n1` (stereo not shown) [compound 39, 4-(6-chloro-2-((1-((2-(2,6-dioxopiperidin-3-yl)-1-oxoisoindolin-5-yl)oxy)-12-methyl-13-oxo-3,6,9-trioxa-12-azapentadecan-15-yl)amino)-8-fluoro-7-(3-hydroxynaphthalen-1-yl)quinazolin-4-yl)piperazine-1-carboxamide] returned a Dmax of at most 35%. Moreover, the “Percent Degradation at Indicated Concentration (μM)” value (H2030, 0.3 μM) is on record as “C (Percent Degradation: C ≤ 35)”. Further, under “H2030, 1 μM”, the “Percent Degradation at Indicated Concentration (μM)” value is given as “C (Percent Degradation: C ≤ 35)”. For the same molecule, the “Percent Degradation at Indicated Concentration (μM)” value (H2030, 3 μM) is reported as “C (Percent Degradation: C ≤ 35)”.

In the case of `C=CC(=O)N1CCN(c2nc(NCCC(=O)N(C)CCNc3cccc4c3C(=O)N(C3CCC(=O)NC3=O)C4=O)nc3c(F)c(-c4c(O)cccc4F)c(Cl)cc23)CC1` [compound 108, 3-(((R)-4-(4-acryloylpiperazin-1-yl)-6-chloro-8-fluoro-7-(2-fluoro-6-hydroxyphenyl)quinazolin-2-yl)amino)-N-(2-((2-(2,6-dioxopiperidin-3-yl)-1,3-dioxoisoindolin-4-yl)amino)ethyl)-N-methylpropanamide], the Dmax was at most 35%. Besides, the “Percent Degradation at Indicated Concentration (μM)” value (H2030, 0.3 μM) was “C (Percent Degradation: C ≤ 35)”. The “Percent Degradation at Indicated Concentration (μM)” value (H2030, 1 μM) is on record as “C (Percent Degradation: C ≤ 35)”. Also, the “Percent Degradation at Indicated Concentration (μM)” value (H2030, 3 μM) was “C (Percent Degradation: C ≤ 35)”.

For the molecule `CN(CCOCCOc1ccc2c(c1)C(=O)N(C1CCC(=O)NC1=O)C2=O)C(=O)CCNc1nc(N2CCN(C(=O)C(O)O)CC2)c2cc(Cl)c(-c3c(O)cccc3F)c(F)c2n1` [compound 150, 3-(((R)-6-chloro-4-(4-(2,2-dihydroxyacetyl)piperazin-1-yl)-8-fluoro-7-(2-fluoro-6-hydroxyphenyl)quinazolin-2-yl)amino)-N-(2-(2-((2-(2,6-dioxopiperidin-3-yl)-1,3-dioxoisoindolin-5-yl)oxy)ethoxy)ethyl)-N-methylpropanamide], the “Percent Degradation at Indicated Concentration (μM)” value (H2030 cells, 0.3 μM) is “C (Percent Degradation: C ≤ 35)”; the “Percent Degradation at Indicated Concentration (μM)” value (H2030 cells, 1 μM) is listed as “C (Percent Degradation: C ≤ 35)”; the “Percent Degradation at Indicated Concentration (μM)” value (H2030 cells, 3 μM) is “C (Percent Degradation: C ≤ 35)”.

`CCC(=O)N1CCN(c2nc(NCCC(=O)N(C)CCOCCOCCOCCOc3cc(-c4scnc4C)ccc3CNC(=O)[C@@H]3C[C@@H](O)CN3C(=O)[C@@H](c3cc(C)no3)C(C)C)nc3c(F)c(-c4cc(O)cc5ccccc45)c(Cl)cc23)CC1` [compound 334, (2S,4R)-N-(2-((15-((6-chloro-8-fluoro-7-(3-hydroxynaphthalen-1-yl)-4-(4-propionylpiperazin-1-yl)quinazolin-2-yl)amino)-12-methyl-13-oxo-3,6,9-trioxa-12-azapentadecyl)oxy)-4-(4-methylthiazol-5-yl)benzyl)-4-hydroxy-1-((R)-3-methyl-2-(3-methylisoxazol-5-yl)butanoyl)pyrrolidine-2-carboxamide]: the “Percent Degradation … 0.3” value (H2030 cells, 0.3 μM) is “C (C ≤ 35)”. For the same molecule, the “Percent Degradation … 1” value (H2030 cells, 1 μM) was “C (C ≤ 35)”. For the same molecule, for the setting “H2030 cells, 3 μM”, the “Percent Degradation … (μM): 3” value was “C (C ≤ 35)”. Where the note is “H2030 cells”, this molecule gave a Dmax of at most 35%.

Regarding `CCC(=O)N1CCN(c2nc(NCCC(=O)N(C)CCOCCOc3ccc4c(c3)C(=O)N(C3CCC(=O)NC3=O)C4=O)nc3c(F)c(-c4cc(O)cc5ccccc45)c(Cl)cc23)CC1` (stereo not shown) [compound 47, 3-((6-chloro-8-fluoro-7-(3-hydroxynaphthalen-1-yl)-4-(4-propionylpiperazin-1-yl)quinazolin-2-yl)amino)-N-(2-(2-((2-(2,6-dioxopiperidin-3-yl)-1,3-dioxoisoindolin-5-yl)oxy)ethoxy)ethyl)-N-methylpropanamide], the “Percent Degradation … 0.3” value (H2030 cells, 0.3 μM) is listed as “C (C ≤ 35)”. Further, the “Percent Degradation … 1” value (H2030 cells, 1 μM) is recorded as “C (C ≤ 35)”. In addition, the “Percent Degradation … (μM): 3” value (H2030 cells, 3 μM) is on record as “C (C ≤ 35)”. The same molecule displayed a Dmax (H2030 cells) of at most 35%.

For `C=CC(=O)N1CCN(c2nc(O[C@H](C)CN3CCC(OCCOCCNc4cccc5c4C(=O)N(C4CCC(=O)NC4=O)C5=O)CC3)nc3c2CCN(c2cc(O)cc4ccccc24)C3)CC1` (stereo partly shown) [compound 412], the “Percent Degradation at Indicated Concentration (μM)” value is, setting by setting: (H2030 cells, 0.3 μM) “C (Percent Degradation: C ≤ 35)”; (H2030 cells, 1 μM) “C (Percent Degradation: C ≤ 35)”; (H2030 cells, 3 μM) “C (Percent Degradation: C ≤ 35)”.

Source of the values: patent US12552783B2, “Modulators of proteolysis and associated methods of use” (Arvinas Operations, Inc., priority 2018, dated 2026).
